Measured values published in ChEMBL document CHEMBL6087425, “Synthesis and evaluation of anti-Giardia activity of oseltamivir analogs” (Bioorg Med Chem Lett, 2025).

What was measured:
Giardia intestinalis [1] = assay: Anti-parasitic activity against Giardia intestinalis assemblage A ATCC 30957 trophozoites assessed as inhibition of cyst production incubated for 24 hrs; format: functional, organism-based; details: Giardia duodenalis, assemblage A ATCC 30957, 24 h
Giardia intestinalis [2] = assay: Anti-parasitic activity against Giardia intestinalis assemblage A ATCC 30957 trophozoites assessed as inhibition of parasite growth incubated for 24 hrs; format: functional, organism-based; details: Giardia duodenalis, assemblage A ATCC 30957, 24 h

Structure (SMILES)	IC50 (Giardia intestinalis [1])	IC50 (Giardia intestinalis [2])
CCC(CC)O[C@@H]1CC(C(=O)O)=C[C@H](N=[N+]=[N-])[C@H]1NC(C)=O	50 µM	30 µM
CCCC(=O)N[C@@H]1[C@@H](N=[N+]=[N-])C=C(C(=O)O)C[C@H]1OC(CC)CC	46 µM	51 µM
CCOC(=O)C1=C[C@H](NC(=O)CF)[C@@H](NC(C)=O)[C@H](OC(CC)CC)C1	41 µM	54 µM
CCOC(=O)C1=C[C@@H](OC(CC)CC)[C@H](NC(C)=O)[C@@H](N)C1 [OSELTAMIVIR]	46 µM	> 120 µM

More lines, main results first:

IC50 (Giardia intestinalis [1])	Structure (SMILES)	IC50 (Giardia intestinalis [2])
42 µM	CCC(CC)O[C@@H]1CC(C(=O)O)=C[C@H](N)[C@H]1NC(C)=O	49 µM
41 µM	CCC(CC)O[C@@H]1CC(C(=O)O)=C[C@H](NC(C)=O)[C@H]1NC(C)=O	40 µM
4 µM	Cc1ncc([N+](=O)[O-])n1CCO [METRONIDAZOLE]	4 µM
